Test results reported in patent US20020137929A1, “1 - (3-heterocyclylphenyl) isothiourea, -isourea, -guanidine and -amidine herbicidal agents” (Intellectual Property Department, BASF Aktiengesellschaft, priority 1998, published 2002).

Experiments:
ORYSAT (Rice, Tebonnet) = assay: Preemergence herbicidal evaluation; format: in vivo, Oryza sativa, (L.) Tebonnet; conditions: rated 4-5 weeks after treatment
In short: (§1)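 Seeds were mixed with potting soil and planted on about one inch of soil, then sprayed with test compound in aqueous acetone at about 0.0156 to 0.500 kg per hectare. Plants grew under standard greenhouse care and were visually rated 0-9 against untreated controls 4-5 weeks post-treatment.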

CYPSE (Flatsedge) = assay: Preemergence weed control under flooded paddy conditions; format: in vivo, Cyperus serotinus; conditions: rated 3-4 weeks after treatment
In short: (§2)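 Visual injury scored 0-9 against control three to four weeks post-treatment, greenhouse-grown. Application: acetone/water (50/50) solutions dosed directly into flood water (1.5-3 cm over silt loam, planted top 0.5 cm), roughly 0.0313 to 0.500 kg/ha active ingredient.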

AMBEL (Ragweed, Common) = assay: Postemergence herbicidal evaluation; format: in vivo, Ambrosia artemisifolia; conditions: postemergence
In short: (§3)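 Each compound, dispersed in an acetone/water mix (50/50) carrying 0.5% TWEEN 20, is nozzle-sprayed at 40 psi on approximately two-week-old seedlings at about 0.0156–0.500 kg/ha. Plants are assessed 4–5 weeks afterward on a 0–9 scale relative to control; duplicate tests are averaged.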

[1] = tested on: GLXMAW (Soybean, Williams); assay: Postemergence herbicidal evaluation; format: in vivo, Glycine max, (L.) Merr. cv Williams; conditions: postemergence
In short: as §3

CASOB (Sicklepod) = assay: Postemergence herbicidal evaluation; format: in vivo, Cassia obtusifolia; conditions: postemergence
In short: as §3

[2] = tested on: TRZAWR (Wheat, Winter, cv Riband); assay: Postemergence herbicidal evaluation; format: in vivo, Triticum aestivum; conditions: postemergence
In short: as §3

GALAP (Galium) [3] = assay: Preemergence herbicidal evaluation; format: in vivo, Galium aparine; conditions: rated 4-5 weeks after treatment
In short: as §1

[4] = tested on: ECHORC (Watergrass (Calif.)); assay: Preemergence weed control under flooded paddy conditions; format: in vivo, Echinochloa oryzoides; conditions: rated 3-4 weeks after treatment
In short: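 Flooded-pot preemergence screen with silt loam and seeds in the upper 0.5 cm. Dose about 0.0313 to 0.500 kg/ha, delivered into flood water; visual 0-9 score after 3 to 4 weeks.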

MOOVA (Monochoria) = assay: as above; format: in vivo, Monochoria vaginalis; conditions: rated 3-4 weeks after treatment
In short: as §2

SETVI (Foxtail, Green) = assay: Preemergence herbicidal evaluation; format: in vivo, Setaria viridis; conditions: rated 4-5 weeks after treatment
In short: as §1

GALAP (Galium) [5] = assay: Postemergence herbicidal evaluation; format: in vivo, Galium aparine; conditions: postemergence
In short: as §3

[6] = tested on: SAGPY (Arrowhead (Pygmaea)); assay: Preemergence weed control under flooded paddy conditions; format: in vivo, Sagittaria pygmaea; conditions: rated 3-4 weeks after treatment
In short: as §2

With `CCCCOC(=O)CN1C(=O)CSC1=Nc1cc(-n2c(=O)cc(C(F)(F)F)n(C)c2=O)c(F)cc1Cl` [Compound 111] the “Preemergence herbicidal rating ORYSAT” value (ORYSAT (Rice, Tebonnet); rate 0.0156 kg/ha) was 0.0, the “Preemergence herbicidal rating ORYSAT” value (ORYSAT (Rice, Tebonnet); rate 0.0313 kg/ha) was 0.0 and the “Preemergence herbicidal rating ORYSAT” value (ORYSAT (Rice, Tebonnet); rate 0.0625 kg/ha) was 0.0. The “Preemergence herbicidal rating ORYSAT” value (ORYSAT (Rice, Tebonnet); rate 0.1250 kg/ha) was 1.0, the “Preemergence herbicidal rating ORYSAT” value (ORYSAT (Rice, Tebonnet); rate 0.2500 kg/ha) was 5.0 and the “CYPSE herbicidal effect rating” value (CYPSE (Flatsedge); 0.0625 kg/ha) was 4.0. The “CYPSE herbicidal effect rating” value (CYPSE (Flatsedge); 0.1250 kg/ha) was 9.0, the “CYPSE herbicidal effect rating” value (CYPSE (Flatsedge); 0.2500 kg/ha) was 9.0 and the “herbicidal rating AMBEL” value (AMBEL (Ragweed, Common); rate 0.0158 kg/ha) was 4.0. For the same compound, the “herbicidal rating AMBEL” value (AMBEL (Ragweed, Common); rate 0.0315 kg/ha) was 6.0, the “herbicidal rating AMBEL” value (AMBEL (Ragweed, Common); rate 0.0630 kg/ha) was 9.0 and the “herbicidal rating GLXMAW” value ([1]; rate 0.0158 kg/ha) was 6.0. The “herbicidal rating GLXMAW” value ([1]; rate 0.0315 kg/ha) was 6.0, the “herbicidal rating GLXMAW” value ([1]; rate 0.0630 kg/ha) was 6.0 and the “herbicidal rating CASOB” value (CASOB (Sicklepod); rate 0.0158 kg/ha) was 0.0. For the same compound, the “herbicidal rating CASOB” value (CASOB (Sicklepod); rate 0.0315 kg/ha) was 1.0, the “herbicidal rating CASOB” value (CASOB (Sicklepod); rate 0.0630 kg/ha) was 1.0 and the “herbicidal rating TRZAWR” value ([2]; rate 0.0158 kg/ha) was 2.5. For the same compound, the “herbicidal rating TRZAWR” value ([2]; rate 0.0315 kg/ha) was 4.5, the “herbicidal rating TRZAWR” value ([2]; rate 0.0630 kg/ha) was 5.5 and the “Preemergence herbicidal rating GALAP” value (GALAP (Galium) [3]; rate 0.0156 kg/ha) was 0.0. For the same compound, the “Preemergence herbicidal rating GALAP” value (GALAP (Galium) [3]; rate 0.0313 kg/ha) was 0.0, the “Preemergence herbicidal rating GALAP” value (GALAP (Galium) [3]; rate 0.0625 kg/ha) was 0.0 and the “Preemergence herbicidal rating GALAP” value (GALAP (Galium) [3]; rate 0.1250 kg/ha) was 6.0. The “Preemergence herbicidal rating GALAP” value (GALAP (Galium) [3]; rate 0.2500 kg/ha) was 7.0, the “ECHORC herbicidal effect rating” value ([4]; 0.0313 kg/ha) was 0.0 and the “ECHORC herbicidal effect rating” value ([4]; 0.0625 kg/ha) was 3.0. The “ECHORC herbicidal effect rating” value ([4]; 0.1250 kg/ha) was 6.0, the “ECHORC herbicidal effect rating” value ([4]; 0.2500 kg/ha) was 7.0 and the “MOOVA herbicidal effect rating” value (MOOVA (Monochoria); 0.0313 kg/ha) was 3.0. For the same compound, the “MOOVA herbicidal effect rating” value (MOOVA (Monochoria); 0.0625 kg/ha) was 4.0, the “MOOVA herbicidal effect rating” value (MOOVA (Monochoria); 0.1250 kg/ha) was 4.0 and the “MOOVA herbicidal effect rating” value (MOOVA (Monochoria); 0.2500 kg/ha) was 4.0. For the same compound, the “Preemergence herbicidal rating SETVI” value (SETVI (Foxtail, Green); rate 0.0156 kg/ha) was 0.0, the “Preemergence herbicidal rating SETVI” value (SETVI (Foxtail, Green); rate 0.0313 kg/ha) was 0.0 and the “Preemergence herbicidal rating SETVI” value (SETVI (Foxtail, Green); rate 0.0625 kg/ha) was 1.0. For the same compound, the “Preemergence herbicidal rating SETVI” value (SETVI (Foxtail, Green); rate 0.1250 kg/ha) was 7.0, the “Preemergence herbicidal rating SETVI” value (SETVI (Foxtail, Green); rate 0.2500 kg/ha) was 7.0 and the “herbicidal rating GALAP” value (GALAP (Galium) [5]; rate 0.0158 kg/ha) was 0.0. For the same compound, the “herbicidal rating GALAP” value (GALAP (Galium) [5]; rate 0.0315 kg/ha) was 0.0, the “herbicidal rating GALAP” value (GALAP (Galium) [5]; rate 0.0630 kg/ha) was 1.0 and the “SAGPY herbicidal effect rating” value ([6]; 0.0313 kg/ha) was 3.0. For the same compound, the “SAGPY herbicidal effect rating” value ([6]; 0.0625 kg/ha) was 4.0, the “SAGPY herbicidal effect rating” value ([6]; 0.1250 kg/ha) was 5.0 and the “SAGPY herbicidal effect rating” value ([6]; 0.2500 kg/ha) was 6.0.
